Measured values from PMC7411887, “New Paracyclophanylthiazoles with Anti-Leukemia Activity: Design, Synthesis, Molecular Docking, and Mechanistic Studies” (Molecules, 2020).
Where two headings read alike, the source gives them in different places.

Experiments:
CCRF-CEM = test: NCI five-dose assay; type: cell-based; conditions: Homo sapiens, Leukemia CCRF-CEM
HL-60(TB) = test: NCI five-dose assay; type: cell-based; conditions: Leukemia HL-60(TB)
MOLT-4 = test: NCI five-dose assay; type: cell-based; conditions: Leukemia MOLT-4
EKVX = test: NCI five-dose assay; type: cell-based; conditions: Non-Small-Cell Lung Cancer EKVX
NCI-H226 = test: NCI five-dose assay; type: cell-based; conditions: Homo sapiens, Non-Small-Cell Lung Cancer NCI-H226
COLO 205 = test: NCI five-dose assay; type: cell-based, human; conditions: Colon Cancer COLO 205
HCC-2998 = test: NCI five-dose assay; type: cell-based; conditions: Colon Cancer HCC-2998
HCT-15 = test: NCI five-dose assay; type: cell-based; conditions: Colon Cancer HCT-15
HT29 = test: NCI five-dose assay; type: cell-based; conditions: Colon Cancer HT29
KM12 = test: NCI five-dose assay; type: cell-based; conditions: Colon Cancer KM12
SW-620 = test: NCI five-dose assay; type: cell-based, human; conditions: Colon Cancer SW-620
SF-295 = test: NCI five-dose assay; type: cell-based; conditions: CNS Cancer SF-295
SF-539 = test: NCI five-dose assay; type: cell-based; conditions: CNS Cancer SF-539
SNB-19 = test: NCI five-dose assay; type: cell-based; conditions: CNS Cancer SNB-19
LOX IMVI = test: NCI five-dose assay; type: cell-based; conditions: Homo sapiens, Melanoma LOX IMVI
SK-MEL-2 = test: NCI five-dose assay; type: cell-based; conditions: Melanoma SK-MEL-2
SK-MEL-28 = test: NCI five-dose assay; type: cell-based; conditions: Melanoma SK-MEL-28
IGROV1 = test: NCI five-dose assay; type: cell-based; conditions: Ovarian Cancer IGROV1
OVCAR-4 = test: NCI five-dose assay; type: cell-based, human; conditions: Ovarian Cancer OVCAR-4
OVCAR-5 = test: NCI five-dose assay; type: cell-based; conditions: Ovarian Cancer OVCAR-5
OVCAR-8 = test: NCI five-dose assay; type: cell-based; conditions: Ovarian Cancer OVCAR-8
NCI/ADR-RES = test: NCI five-dose assay; type: cell-based; conditions: Homo sapiens, Ovarian Cancer NCI/ADR-RES
SK-OV-3 = test: NCI five-dose assay; type: cell-based; conditions: Ovarian Cancer SK-OV-3
A498 = test: NCI five-dose assay; type: cell-based; conditions: Renal Cancer A498
ACHN = test: NCI five-dose assay; type: cell-based; conditions: Renal Cancer ACHN
RXF393 = test: NCI five-dose assay; type: cell-based; conditions: Renal Cancer RXF393
DU-145 = test: NCI five-dose assay; type: cell-based; conditions: Homo sapiens, Prostate Cancer DU-145
[1] = system: 60 human tumor cell lines; test: NCI five-dose assay, full panel; type: cell-based; conditions: for GI50: Homo sapiens
Method: The outcomes were used to form log concentration vs. percentage growth inhibition curves and three response parameters (GI50, total growth inhibition (TGI), and LC50) were calculated for each cell line (Table 2).
The criterion for selectivity of a compound depends upon the ratio obtained by dividing the full-panel MID (the average sensitivity of all cell lines toward the test agent) (μM) by the individual subpanel MIDs (μM).

SR cancer cell line = test: Annexin V/PI flow cytometry; type: cell-based, human; conditions: 24 h, at IC50, second value printed in the panel of Figure 11
Method: Figure 11 Contour diagram of annexin V/PI flow cytometry against SR cancer cell line. […] The test was repeated three times. Following incubation for 24 h, cells were analyzed by flow cytometry after double staining with annexin V/PI.

[2] = read-out: GI50 Concentration/Cell Line
[3] = Homo sapiens, read-out: GI50 Concentration/Cell Line
[4] = Homo sapiens, read-out: LC50 (the source's name)

## COC(=O)C=C1SC(=NNC(=O)c2cc3ccc2CCc2ccc(cc2)CC3)N(c2ccccc2)C1=O [Compound 3a]
CCRF-CEM
  LC50: > 100 µM
CCRF-CEM; [2]
  GI50: 2.71 µM
HL-60(TB); [3]
  GI50: 2.7 µM
HL-60(TB); [4]
  CC50: > 100 µM
HL-60(TB)
  TGI Concentration/Cell Line: >100 µM
MOLT-4; Homo sapiens
  LC50 (concentration killing 50% of cells): > 100 µM
MOLT-4; [3]
  GI50: 3.12 µM
MOLT-4
  TGI Concentration/Cell Line: >100 µM
EKVX; [3]
  GI50: 1.91 µM
EKVX; [4]
  CC50: 9.38 µM
EKVX
  TGI Concentration/Cell Line: 4.23 µM
NCI-H226
  LC50 (concentration killing 50% of tumour cells): > 100 µM
NCI-H226; [2]
  GI50: 4.38 µM
COLO 205
  TGI Concentration/Cell Line: 4.61 µM
COLO 205; [3]
  GI50: 2.13 µM
HCC-2998
  TGI Concentration/Cell Line: 3.45 µM
HCC-2998; Homo sapiens
  LC50: 6.68 µM
HCC-2998; [3]
  GI50: 1.78 µM
HCT-15
  TGI Concentration/Cell Line: 4.05 µM
HCT-15; Homo sapiens
  LC50: 8.76 µM
HCT-15; [3]
  GI50: 1.87 µM
HT29
  TGI Concentration/Cell Line: 4.07 µM
HT29; Homo sapiens, HT-29
  LC50: 8.56 µM
HT29; Homo sapiens, HT-29, read-out: GI50 Concentration/Cell Line
  GI50: 1.93 µM
KM12
  TGI Concentration/Cell Line: 4.15 µM
KM12; [3]
  GI50: 2.03 µM
KM12; [4]
  CC50: 8.51 µM
SW-620
  TGI Concentration/Cell Line: 3.66 µM
SW-620; Homo sapiens
  LC50 (concentration killing 50% of cells): 7.23 µM
SW-620; [3]
  GI50: 1.85 µM
SF-295
  TGI Concentration/Cell Line: 4.19 µM
SF-295; Homo sapiens
  LC50: 8.5 µM
SF-295; [3]
  GI50: 2.07 µM
SF-539
  TGI Concentration/Cell Line: 3.32 µM
SF-539; [3]
  GI50: 1.79 µM
SF-539; [4]
  CC50: 6.18 µM
SNB-19
  TGI Concentration/Cell Line: 4.25 µM
SNB-19; Homo sapiens
  LC50 (concentration killing 50% of cells): 9.26 µM
SNB-19; [3]
  GI50: 1.95 µM
LOX IMVI
  LC50 (concentration killing 50% of cells): 6.75 µM
LOX IMVI; [2]
  GI50: 1.69 µM
SK-MEL-2; Homo sapiens
  LC50 (concentration causing 50% net cell kill): > 100 µM
SK-MEL-2; [3]
  GI50: 2.65 µM
SK-MEL-2
  TGI Concentration/Cell Line: 7.76 µM
SK-MEL-28; Homo sapiens
  LC50 (concentration causing 50% net cell kill): > 100 µM
SK-MEL-28; [3]
  GI50: 2.97 µM
SK-MEL-28
  TGI Concentration/Cell Line: 9.87 µM
IGROV1; Homo sapiens, IGROV-1
  LC50 (NCI lethal concentration, 50% net cell kill): 6.44 µM
IGROV1; Homo sapiens, IGROV-1, read-out: GI50 Concentration/Cell Line
  GI50: 1.66 µM
IGROV1
  TGI Concentration/Cell Line: 3.27 µM
OVCAR-4; [3]
  GI50: 3.17 µM
OVCAR-4
  TGI Concentration/Cell Line: 9.88 µM
OVCAR-5; Homo sapiens
  LC50 (50% lethal concentration): 7.68 µM
OVCAR-5; [3]
  GI50: 1.92 µM
OVCAR-5
  TGI Concentration/Cell Line: 3.84 µM
OVCAR-8; [3]
  GI50: 3.08 µM
OVCAR-8; [4]
  CC50: > 100 µM
OVCAR-8
  TGI Concentration/Cell Line: >100 µM
NCI/ADR-RES
  LC50: > 100 µM
NCI/ADR-RES; [2]
  GI50: 2.92 µM
SK-OV-3; Homo sapiens
  LC50 (NCI lethal concentration, 50% cell kill): > 100 µM
SK-OV-3; [3]
  GI50: 3.55 µM
SK-OV-3
  TGI Concentration/Cell Line: 7.53 µM
A498; [4]
  CC50: > 100 µM
A498
  TGI Concentration/Cell Line: 8.36 µM
ACHN; [3]
  GI50: 1.78 µM
ACHN; [4]
  CC50: 6.08 µM
ACHN
  TGI Concentration/Cell Line: 3.29 µM
RXF393; Homo sapiens, RXF 393
  LC50 (50% lethal concentration): > 100 µM
RXF393
  TGI Concentration/Cell Line: 3.86 µM
DU-145
  LC50: > 100 µM
DU-145; [2]
  GI50: 5.11 µM
[1]; full panel, read-out: MID^a (GI50, average sensitivity of all cell lines)
  GI50: 2.38 µM
[1]; nine subpanels, read-out: GI50 range over tested cell lines
  GI50: 1.52 to 7.56 µM
[1]; full panel
  MID^c (TGI, average sensitivity of all cell lines): 21.1 µM
SR cancer cell line
  percentage of cells in late apoptosis (upper right quadrant): 19%
